Experimental data published in patent US4005076A, “Hydrazones of 3-formylrifamycin SV” (Gruppo Lepetit S.p.A., priority 1971, dated 1977).
Converted amounts (≈) assume the structure as drawn. Like-named read-outs stand apart in the source and are kept apart here.

Assays:
normal polymerases = test: effect on normal polymerases, native template; type: biochemical; conditions: about 5 μg/ml
Procedure: (§1) DNA polymerase assays were carried out in a final volume of 100 μl. The assay mixture contained Tris-HCl buffer, pH 8.3, 50 mM; MgAc, 6.0 mM; dithiothreitol, 8.0 mM; NaCl, 60 mM. Adjustment of pH was carried out after addition of inhibitors which were previously dissolved in dimethylsulfoxide (DMSO). The final concentration of DMSO was 0.5% and all control samples included this amount of DMSO. An enzyme concentration that catalyzes an incorporation of approximately 1.0 pmole/hr was used in the assay. The enzyme was in most cases preincubated for 5 minutes with the inhibitor. […]
(§2) In these cases, reactions were initiated by adding enzyme to the complete reaction mixture, which included the inhibitor. […] The products were collected on Millipore filter, washed extensively with 5% TCA and 1 ml. of DMSO-ethanol 0.1 M NaCl mixture (0.5:70:29.5), dried and counted in 2 ml. of BBS3 (Beckman) and 10 ml. of liquifluor (New England Nuclear) in a Packard liquid scintillation counter.

[1] = target: T1, mouse embryo RNA-polymerase II (ME-RNA-P2) (Mus musculus, UniProt P08775+Q8CFI7); test: effect on mouse embryo RNA-polymerase II; type: biochemical; conditions: for remaining activity at 10 µg: read-out: % Control Activity of ME-RNA-P2 at 10μg; for remaining activity at 100 µg: read-out: % Control Activity of ME-RNA-P2 at 100μg
T1 construct: mouse embryo RNA-polymerase II (ME-RNA-P2); endogenous in cells; host or cells: mouse embryo cells
Description: (§3) Calf-Thymus DNA. Me-RNA-P1 and ME-RNA-P2 : Single Stranded

[2] = test system: mouse embryo DNA-polymerase I (ME-DNA-P1); test: effect on mouse embryo DNA-polymerase I; type: biochemical; conditions: activated Calf-Thymus DNA
Description: (§4) Oligo dT.Poly rA. ME-DNA-P1 and ME-DNA-p2 : activated

[3] = target: T2, mouse embryo RNA-polymerase I (ME-RNA-P1) (Mus musculus, UniProt O35134+P70700); test: effect on mouse embryo RNA-polymerase I; type: biochemical; conditions: for remaining activity at 10 µg: read-out: % Control Activity of ME-RNA-P1 at 10μg; for remaining activity at 100 µg: read-out: % Control Activity of ME-RNA-P1 at 100μg
T2 construct: mouse embryo RNA-polymerase I (ME-RNA-P1); endogenous in cells; host or cells: mouse embryo cells
Description: as §3

[4] = test system: Staphylococcus aureus strain which is resistant to rifampicin (Staph. aureus Tour); test: in vitro minimal inhibitory concentration against rifampicin-resistant Staphylococcus aureus strain; type: cell-based; conditions: for MIC: Staphylococcus aureus, read-out: Minimal inhibitory concentration
Procedure: In particular, compounds illustrative of the invention at concentrations of about 10 to 20 μg/ml or less inhibit the growth of a Staph. aureus Tour strain resistant to rifampicin.
One of the most important characteristics of the new hydrazones is their activity against rifampicin-resistant Staphylococcus aureus strains. Rifampicin, that is 3-(4-methyl-1-piperazinyl)iminomethylrifamycin SV, disclosed in U.S. Pat. No. 3,342,810, is the most known and widely used rifamycin derivative in therapeutic practice.
The data of the new compounds are compared with those of representative hydrazones disclosed in U.S. Pat. No. 3,342,810.

tumor virus polymerases = test: inhibition of tumor virus polymerases, native template; type: biochemical; conditions: about 5 μg/ml
Procedure: as §1, §2

[5] = test system: mouse embryo DNA-polymerase II (ME-DNA-P2); test: effect on mouse embryo DNA-polymerase II; type: biochemical; conditions: activated Calf-Thymus DNA
Description: as §4

[6] = target: T3, sarcoma virus DNA-polymerases (SSV-DNA-P) (Woolly monkey sarcoma virus, UniProt P03359); test: effect on activity of SSV-polymerase; type: biochemical
T3 construct: sarcoma virus DNA-polymerases (SSV-DNA-P)
Description: Templates used in the Enzymatic Assays were the following: SSV-DNA-P: […]

[7] = target: T4, RNA-dependent DNA polymerase of murine sarcoma virus (Moloney murine leukemia virus, UniProt P03355); test: inhibition of RNA-dependent DNA polymerase of murine sarcoma virus (3H-dTTP incorporation); type: biochemical; conditions: at a concentration of 2-100 μg/ml or less; 60 min
T4 construct: The virion polymerase was purified 20-40 fold; made in house; host or cells: virions from MSV (Moloney) transformed rat 78A1 cells and MSV (Harvey) transformed mouse MEH cells; disrupted virus or polymerase purified 20-40 fold
Procedure: The inhibiting activity of the inventive compounds has been tested on RNA-dependent DNA polymerase of murine sarcoma virus (endogenous) and RNA-dependent DNA polymerase activity of purified enzymes. The inhibition was tested according to the methods described by C. Gurgo et al., Nature, New Biology, 229, 111, 1971. The effect of different concentrations of drugs on polymerase activity was determined by following ^3 H-dTTP (tritiated thymine deoxyriboside triphosphate) incorporation into the insoluble fraction. A typical example of the experimental procedures is the following.
Virus was isolated and purified from murine sarcoma virus (Moloney isolate) transformed rat cells (78Al cells) and murine sarcoma virus (Harvey isolate) transformed mouse cells (MEH cells) as previously described (Green et al., Proc. Nat. Acad. Sci. USA 67, 385-393, 1970, Rokutanda et al., Nature, 227, 1026-1028, 1970). The virion polymerase was purified 20-40 fold by incubation of purified virus with 0.5% NP-40 (nonidet P-40) in 0.1 M NaCl, 0.01 M Tris buffer (pH 7.6), 0.001 M EDTA for 5 minutes at room temperature and zonal centrifugation in 15-30% sucrose gradients in 10 mM sodium phosphate buffer (pH 7.4), 2.5 mM MgCl2, 10 mM dithiothreitol, and 5% glycerol for 24 hours at 38,000 rpm in a Spinco SW41 rotor. The peak fractions of enzyme activity (13-17) of 22 fractions collected, were pooled and stored at -70° C. in 30% glycerol.
Enzyme incubation was performed for 1 hour at 37° C. in 100 μl of reaction mixture containing 40 mM Tris buffer (pH 8.0), 5 mM dithiothreitol, 30 mM NaCl, 2.5 mM MgCl2, 0.1 mM dATP, dGTP, dCTP, and 10 μCi of ^3 H-dTTP (12-18 Ci/mmole) as described by Green et al. in Proc. Nat. Acad. Sci. USA 67, 385-393, 1970. The reaction was terminated by the addition of 150 μl of 1N perchloric acid. Calf thymus DNA (100 μg) was added as carrier; the radioactive DNA product was processed as described in the two papers mentioned above. Endogenous RNA-dependent DNA-polymerase activity was measured after the addition of 0.01% NP-40 to purified virus at the time of assay. The DNA-polymerase activity of purified viral polymerase was measured with 2 μg of poly d (A-T) as template and no NP-40.
Rifamycin derivatives of this invention were dissolved in dimethylsulfoxide (DMSO) at a concentration of 5 mg/ml and stored at 4° C. Inhibition of the endogenous RNA-dependent DNA-polymerase activity was tested by adding 2 μl of derivative appropriately diluted in DMSO or 2 μl of DMSO (control) to the assay mixture prior to addition to disrupted virus which contained 15 to 30 μg of viral protein. Enzyme incubation was performed for 60 minutes at 37° C. Inhibition of purified enzyme was tested by pre-incubation of 2 μl of derivative or DMSO with 30 μl of enzyme (1 to 2 μg of protein) for 10 minutes at 37° C.; then 70 μl of substrate mixture were added and the mixture further incubated and processed as described above.

T3 sequence (P03359 642-1310): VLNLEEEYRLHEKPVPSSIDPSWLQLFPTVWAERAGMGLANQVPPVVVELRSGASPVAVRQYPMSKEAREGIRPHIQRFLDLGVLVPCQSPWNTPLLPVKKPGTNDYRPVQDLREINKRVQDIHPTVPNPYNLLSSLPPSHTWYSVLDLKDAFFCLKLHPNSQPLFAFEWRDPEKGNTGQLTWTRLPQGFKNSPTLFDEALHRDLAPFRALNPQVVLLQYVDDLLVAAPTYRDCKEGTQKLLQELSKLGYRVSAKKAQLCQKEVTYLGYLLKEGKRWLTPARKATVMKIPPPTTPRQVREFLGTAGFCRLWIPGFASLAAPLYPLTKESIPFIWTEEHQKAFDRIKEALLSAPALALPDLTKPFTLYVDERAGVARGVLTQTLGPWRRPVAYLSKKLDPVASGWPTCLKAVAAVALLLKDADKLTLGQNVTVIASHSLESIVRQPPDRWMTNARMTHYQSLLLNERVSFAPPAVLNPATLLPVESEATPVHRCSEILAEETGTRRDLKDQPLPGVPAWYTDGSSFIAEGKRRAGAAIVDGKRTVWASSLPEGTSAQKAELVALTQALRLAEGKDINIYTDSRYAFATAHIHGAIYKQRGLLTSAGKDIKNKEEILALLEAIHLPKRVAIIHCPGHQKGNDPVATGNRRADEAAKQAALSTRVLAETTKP

| SMILES | remaining activity at 10 µg [1] [%] | remaining activity at 100 µg [1] [%] | % Control Activity of ME-DNA-P1 at 10μg [2] [%] | % Control Activity of ME-DNA-P1 at 100μg [2] [%] | remaining activity at 10 µg [3] [%] | remaining activity at 100 µg [3] [%] | MIC [4] [µg/mL] | % Control Activity of ME-DNA-P2 at 10μg [5] [%] | % Control Activity of ME-DNA-P2 at 100μg [5] [%] | incorporation of H3-dTTP relative to that found in the control tests [7] | other results |
| --- | --- | --- | --- | --- | --- | --- | --- | --- | --- | --- | --- |
| COC1C=COC2(C)Oc3c(C)c(O)c4c(O)c(c(C=NNc5ccc([N+](=O)[O-])cc5[N+](=O)[O-])c(O)c4c3C2=O)NC(=O)C(C)=CC=CC(C)C(O)C(C)C(O)C(C)C(OC(C)=O)C1C (centres unmarked) [Example 12] | 92 | 72 | 83 | 11 | 115 | 100 | 10 (≈ 11 µM) | 83 | 46 | less than 10% | activity on normal polymerases (normal polymerases): practically inactive; % Control Activity of ME-DNA-P1 at 5μg ([2]; 5μg): 102%; inhibition of tumor virus polymerases (tumor virus polymerases): 44%; % Control Activity of ME-DNA-P2 at 5μg ([5]; 5μg): 72%; % Control Activity of SSV-DNA-P at 5μg ([6]; 5μg, template Oligo dT.Poly rA): 44%; % Control Activity of SSV-DNA-P at 10μg ([6]; 10μg, template Oligo dT.Poly rA): 34%; % Control Activity of SSV-DNA-P at 100μg ([6]; 100μg, template Oligo dT.Poly rA): 1% |
| COC1C=COC2(C)Oc3c(C)c(O)c4c(O)c(c(C=NNC5CCCCCCC5)c(O)c4c3C2=O)NC(=O)C(C)=CC=CC(C)C(O)C(C)C(O)C(C)C(OC(C)=O)C1C (centres unmarked) [Example 14] |  |  |  |  |  |  | 5 (≈ 5.88 µM) |  |  | less than 10% |  |
| COC1C=COC2(C)Oc3c(C)c(O)c4c(O)c(c(C=NN(Cc5ccccc5)c5ccccc5)c(O)c4c3C2=O)NC(=O)C(C)=CC=CC(C)C(O)C(C)C(O)C(C)C(OC(C)=O)C1C (centres unmarked) [Example 15] |  |  |  |  |  |  | 2 (≈ 2.21 µM) |  |  | less than 10% |  |
| COC1C=COC2(C)Oc3c(C)c(O)c4c(O)c(c(C=NNC5CCCCCC5)c(O)c4c3C2=O)NC(=O)C(C)=CC=CC(C)C(O)C(C)C(O)C(C)C(OC(C)=O)C1C (centres unmarked) [Example 13] |  |  |  |  |  |  | 10 (≈ 12 µM) |  |  | less than 10% |  |
| COC1C=COC2(C)Oc3c(C)c(O)c4c(O)c(c(C=NN(c5ccccc5)c5ccccc5)c(O)c4c3C2=O)NC(=O)C(C)=CC=CC(C)C(O)C(C)C(O)C(C)C(OC(C)=O)C1C (centres unmarked) [Example 11] |  |  |  |  |  |  | 2 (≈ 2.24 µM) |  |  | less than 10% |  |
| COC1C=COC2(C)Oc3c(C)c(O)c4c(O)c(c(C=NN5CCN(C)CC5)c(O)c4c3C2=O)NC(=O)C(C)=CC=CC(C)C(O)C(C)C(O)C(C)C(OC(C)=O)C1C (centres unmarked) [Rifampicin, 3-(4-methyl-1-piperazinyl)iminomethylrifamycin SV] | 81 | 99 | 99 | 56 | 77.7 | 86 | > 100 | 96 | 16 |  | Minimal inhibitory concentration ([4]; in vitro, Staphylococcus aureus strain resistant to rifampicin): > 100 µg/mL; % Control Activity of SSV-DNA-P at 5μg [6]: 94%; % Control Activity of SSV-DNA-P at 10μg [6]: 97%; % Control Activity of SSV-DNA-P at 100μg [6]: 96% |
